The values that follow come from patent publication US20130040933A1, “AZAINDOLES AS JANUS KINASE INHIBITORS” (priority 2010, published 2013).

In the assay the target is T1, rhJAK3 (Homo sapiens, UniProt P52333).
T1 construct: recombinant purified GST-tagged catalytic domain for each enzyme; purchased Invitrogen PV3855
Put plainly: JAK Biochemical HTRF Assay (JAK3). Conditions: recombinant purified GST-tagged catalytic domain, HTRF format, [ATP] 1.7 μM; read-out: rhJAK3 IC50. How it is done: JAK Biochemical HTRF Assay Protocol
The ability of compounds to inhibit the activity of JAK1, JAK2, JAK3, and TYK2 was measured using a recombinant purified GST-tagged catalytic domain for each enzyme (Invitrogen JAK1 #PV4774, JAK2 #PV4210, JAK3 #PV3855, TYK2 #PV4790) in an HTRF format biochemical assay. The reactions employed a common peptide substrate, LCB-EQEDEPEGDYFEWLW-NH2. The basic assay protocol is as follows: First, […] of diluted compounds in DMSO were dispensed into the wells of a dry 384-well Black plate (Greiner #781076) using a Labcyte Echo 555 acoustic dispenser. Subsequent reagent additions employed a Thermo Multidrop Combi nL. Next, 10 μL of 2× enzyme and 2× substrate in 1× assay buffer (Invitrogen kinase buffer #PV3189, 2 mM DTT, 0.05% BSA) were added to the wells and preincubated for 30 min at room temperature to allow compound binding to equilibrate. After equilibration, 10 μl, of 2×ATP in 1× assay buffer was added to initiate the kinase reaction and the plates were incubated at room temperature for 120 min. At the end of the incubation, 20 μL of 2× stop buffer containing streptavidin-Dylight (Thermo #21845) and Eu-tagged pY20 antibody (Perkin Elmer #AD0067) was added to quench the reaction. Plates were further incubated 60 min at room temperature with shaking and then read on a Perkin Elmer Envision (λex=337 nm, λem=665 and 615 nm, TRF delay time=20 μs). HTRF signal=10,000*665 nm reading/615 nm reading. After normalization to untreated controls, the percent inhibition of the HTRF signal at each compound concentration was calculated. The plot of percent inhibition vs. the log of compound concentration was fit with a 4-parameter dose response equation to calculate IC50 values.

Bounds are passed on as bounds.

T1 sequence (P52333 822-1111 limits assumed): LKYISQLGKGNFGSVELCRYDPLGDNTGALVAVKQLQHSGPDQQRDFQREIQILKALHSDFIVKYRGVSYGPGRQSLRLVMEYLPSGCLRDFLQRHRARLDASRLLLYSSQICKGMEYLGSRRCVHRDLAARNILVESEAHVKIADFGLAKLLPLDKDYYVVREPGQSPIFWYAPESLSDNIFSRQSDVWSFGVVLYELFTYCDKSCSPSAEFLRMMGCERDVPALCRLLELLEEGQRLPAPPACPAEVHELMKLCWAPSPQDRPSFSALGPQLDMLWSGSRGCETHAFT

Turning to `CC(C)[C@@H](Nc1cncc(-c2c[nH]c3ncc(C(N)=O)cc23)n1)C(=O)NCC(F)(F)F` [16 Step 8], the IC50 is ≤ 1 nM.
For `C[C@@H](Nc1cncc(-c2c[nH]c3ncc(Cl)cc23)n1)C(=O)NCC(F)(F)F` [Example 1, N^2-[6-(5-Chloro-1H-pyrrolo[2,3-b]pyridin-3-yl)pyrazin-2-yl]-N-(2,2,2-trifluoroethyl)-D-alaninamide] the value was ≤ 1 nM; for `O=C(NCC(F)(F)F)[C@@H]1CC[C@@H](Nc2cncc(-c3c[nH]c4ncc(Cl)cc34)n2)C1` [Example 1-1, (1R,3R)-3-{[6-(5-chloro-1H-pyrrolo[2,3-b]pyridin-3-yl)-pyrazin-2-yl]amino}-N-(2,2,2-trifluoroethyl)cyclopentane-carboxamide], 1 to 10 nM; for `O=C(NCC(F)(F)F)[C@H]1CC[C@@H](Nc2cncc(-c3c[nH]c4ncc(Cl)cc34)n2)C1` [Example 1-2, (1S,3R)-3-{[6-(5-chloro-1H-pyrrolo[2,3-b]pyridin-3-yl)-pyrazin-2-yl]amino}-N-(2,2,2-trifluoroethyl)cyclopentane-carboxamide], 1 to 10 nM.
With `O=C(NCC(F)(F)F)[C@@H]1CC[C@H](Nc2cncc(-c3c[nH]c4ncc(Cl)cc34)n2)C1` [Example 1-3, (1R,3S)-3-{(6-(5-chloro-1H-pyrrolo[2,3-b]pyridin-3-yl)-pyrazin-2-yl]amino}-N-(2,2,2-trifluoroethyl)cyclopentane-carboxamide] the figure was 1 to 10 nM.
For `O=C(NCC(F)(F)F)[C@H]1CC[C@H](Nc2cncc(-c3c[nH]c4ncc(Cl)cc34)n2)C1` [Example 1-4, (1S,3S)-3-{[6-(5-chloro-1H-pyrrolo[2,3-b]pyridin-3-yl)-pyrazin-2-yl]amino}-N-(2,2,2-trifluoroethyl)cyclopentane-carboxamide] the value was 10 to 100 nM; for `O=C(NCC(F)(F)F)[C@@H]1CCCN1c1cncc(-c2c[nH]c3ncc(Cl)cc23)n1` [Example 1-5, 1-[6-(5-chloro-1H-pyrrolo[2,3-b]pyridin-3-yl)-pyrazin-2-yl]-N-(2,2,2-trifluoroethyl)-L-prolinamide], 1 to 10 nM; for `O=C(NCC(F)(F)F)[C@H]1CCCN1c1cncc(-c2c[nH]c3ncc(Cl)cc23)n1` [Example 1-6, 1-[6-(5-chloro-1H-pyrrolo[2,3-b]pyridin-3-yl)pyrazin-2-yl]-N-(2,2,2-trifluoroethyl)-D-prolinamide], ≤ 1 nM.
As for `CCNC(=O)[C@H]1CCCN1c1cncc(-c2c[nH]c3ncc(Cl)cc23)n1` [Example 1-7, 1-[6-(5-chloro-1H-pyrrolo[2,3-b]pyridin-3-yl)pyrazin-2-yl]-N-ethyl-D-prolinamide], the IC50 lay in the range of 1 to 10 nM.
`O=C(NCC(F)(F)F)[C@@H]1CC(F)(F)CN1c1cncc(-c2c[nH]c3ncc(Cl)cc23)n1` [Example 1-8, 1-[6-(5-chloro-1H-pyrrolo[2,3-b]pyridin-3-yl)pyrazin-2-yl]-4,4-difluoro-N-(2,2,2-trifluoroethyl)-L-prolinamide]: the IC50 lay in the range of 1 to 10 nM.
With `CC1(C(=O)NCC(F)(F)F)CCN1c1cncc(-c2c[nH]c3ncc(Cl)cc23)n1` (stereo not shown) [Example 1-9, 1-[6-(5-chloro-1H-pyrrolo[2,3-b]pyridin-3-yl)pyrazin-2-yl]-2-methyl-N-(2,2,2-trifluoroethyl)azetidine-2-carboxamide] the figure was ≤ 1 nM; with `C[C@@]1(C(=O)NCC(F)(F)F)CCN1c1cncc(-c2c[nH]c3ncc(Cl)cc23)n1` [Example 1-10, (2S)-1-[6-(5-chloro-1H-pyrrolo[2,3-b]pyridin-3-yl)pyrazin-2-yl]-2-methyl-N-(2,2,2-trifluoroethyl)azetidine-2-carboxamide], 1 to 10 nM.
For `C[C@]1(C(=O)NCC(F)(F)F)CCN1c1cncc(-c2c[nH]c3ncc(Cl)cc23)n1` [Example 1-11, (2R)-1-[6-(5-chloro-1H-pyrrolo[2,3-b]pyridin-3-yl)pyrazin-2-yl]-2-methyl-N-(2,2,2-trifluoroethyl)azetidine-2-carboxamide] the value was ≤ 1 nM.
